Values quoted from earlier work, collected in US9260379B2 (Ocera Therapeutics, Inc., priority 2010, dated 2016).

Details: free acid

O=C(O)Cc1ccccc1 [phenyl acetic acid]
pKa: ~4.28
